This note sets out measurements from ChEMBL document CHEMBL1201862, “PubChem BioAssay data set” (2004).

A word on the IC50: it is the concentration that gives 50% inhibition. What is called EC50 is the concentration giving half of the maximal effect. The term AC50 denotes the midpoint of the concentration-response curve, whichever way the signal moves.

In test [1] the target is T1, Sentrin-specific protease 8 (Homo sapiens, UniProt Q96LD8).
T1 sequence (Q96LD8 whole entry): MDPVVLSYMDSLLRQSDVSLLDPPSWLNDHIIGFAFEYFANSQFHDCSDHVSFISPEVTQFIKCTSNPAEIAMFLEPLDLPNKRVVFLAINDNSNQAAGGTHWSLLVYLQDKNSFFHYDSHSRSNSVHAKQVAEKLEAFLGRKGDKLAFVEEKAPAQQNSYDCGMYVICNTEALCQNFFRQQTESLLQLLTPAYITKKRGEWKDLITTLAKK
It counts as functional.

In a further test the target is T2, Protein RecA (Mycobacterium tuberculosis, UniProt P9WHJ3).
T2 sequence (P9WHJ3 whole entry): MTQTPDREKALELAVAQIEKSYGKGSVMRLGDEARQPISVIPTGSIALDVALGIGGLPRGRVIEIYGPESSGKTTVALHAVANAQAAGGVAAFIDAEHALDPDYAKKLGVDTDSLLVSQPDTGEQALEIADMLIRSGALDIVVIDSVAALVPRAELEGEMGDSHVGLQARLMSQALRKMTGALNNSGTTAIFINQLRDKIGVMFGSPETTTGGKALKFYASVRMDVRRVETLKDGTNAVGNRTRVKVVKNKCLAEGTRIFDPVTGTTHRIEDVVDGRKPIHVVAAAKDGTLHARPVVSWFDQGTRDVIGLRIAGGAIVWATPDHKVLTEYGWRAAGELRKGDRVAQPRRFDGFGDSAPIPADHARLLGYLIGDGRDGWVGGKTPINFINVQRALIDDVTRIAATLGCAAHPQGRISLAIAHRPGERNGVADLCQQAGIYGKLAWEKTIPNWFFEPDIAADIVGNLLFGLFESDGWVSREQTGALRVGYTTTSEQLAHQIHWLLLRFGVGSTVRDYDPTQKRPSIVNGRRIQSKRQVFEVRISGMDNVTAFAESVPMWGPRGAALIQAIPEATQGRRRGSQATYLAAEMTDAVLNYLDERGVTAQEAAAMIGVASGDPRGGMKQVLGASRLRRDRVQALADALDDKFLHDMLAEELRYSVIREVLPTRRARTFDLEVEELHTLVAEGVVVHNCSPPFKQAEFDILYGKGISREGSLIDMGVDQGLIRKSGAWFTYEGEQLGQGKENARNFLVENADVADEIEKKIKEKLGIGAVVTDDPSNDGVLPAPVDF
Description: Fluorescence Cell-Free Homogeneous Dose Retest to Identify Inhibitors of RecA-Intein Splicing Activity. [Related pubchem assays (depositor defined):AID2097, AID2223, AID489010, AID492950]. It counts as functional.

The target of test [2] is T3, Replicative DNA helicase DnaB (Mycobacterium tuberculosis, UniProt P9WMR3).
T3 sequence (P9WMR3 whole entry): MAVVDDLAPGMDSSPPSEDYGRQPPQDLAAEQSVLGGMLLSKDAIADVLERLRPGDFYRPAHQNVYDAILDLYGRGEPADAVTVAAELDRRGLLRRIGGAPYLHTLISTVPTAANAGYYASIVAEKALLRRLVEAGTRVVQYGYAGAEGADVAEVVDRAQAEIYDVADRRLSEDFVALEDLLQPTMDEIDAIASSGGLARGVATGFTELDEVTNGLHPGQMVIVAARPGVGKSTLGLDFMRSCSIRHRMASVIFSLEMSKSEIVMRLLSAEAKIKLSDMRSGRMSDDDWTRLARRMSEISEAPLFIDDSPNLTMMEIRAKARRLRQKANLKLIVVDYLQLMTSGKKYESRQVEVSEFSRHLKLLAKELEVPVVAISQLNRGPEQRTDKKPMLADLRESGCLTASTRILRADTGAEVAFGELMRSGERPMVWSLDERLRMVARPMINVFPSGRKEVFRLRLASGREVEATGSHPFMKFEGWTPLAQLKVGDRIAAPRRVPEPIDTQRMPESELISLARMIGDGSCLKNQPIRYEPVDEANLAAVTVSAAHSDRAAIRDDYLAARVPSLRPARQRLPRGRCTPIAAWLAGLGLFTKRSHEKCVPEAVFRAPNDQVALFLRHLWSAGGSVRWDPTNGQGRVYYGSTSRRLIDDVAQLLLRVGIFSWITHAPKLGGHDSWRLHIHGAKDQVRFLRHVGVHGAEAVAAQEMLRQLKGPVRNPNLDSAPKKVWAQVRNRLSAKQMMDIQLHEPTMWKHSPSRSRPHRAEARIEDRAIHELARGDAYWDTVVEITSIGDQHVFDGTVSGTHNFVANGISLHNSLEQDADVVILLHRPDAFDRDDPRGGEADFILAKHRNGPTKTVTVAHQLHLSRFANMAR
Description: DnaB intein splicing inhibitors, dose response, biochemical, cell-free fluorescence (AID 449749). The class given is functional.

The target in test [3] is Protein-tyrosine kinase 2-beta (Homo sapiens, UniProt Q14289).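 Also: potency of inhibitors of PYK2 kinase phosphorylation of poly-GT substrate.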
Test [4] concerns the target T1, Sentrin-specific protease 8. It counts as functional. This is another data set of the same source.
Test [5] has as its target T4, Apoptotic protease-activating factor 1 (Homo sapiens, UniProt O14727).
T4 sequence (O14727 whole entry): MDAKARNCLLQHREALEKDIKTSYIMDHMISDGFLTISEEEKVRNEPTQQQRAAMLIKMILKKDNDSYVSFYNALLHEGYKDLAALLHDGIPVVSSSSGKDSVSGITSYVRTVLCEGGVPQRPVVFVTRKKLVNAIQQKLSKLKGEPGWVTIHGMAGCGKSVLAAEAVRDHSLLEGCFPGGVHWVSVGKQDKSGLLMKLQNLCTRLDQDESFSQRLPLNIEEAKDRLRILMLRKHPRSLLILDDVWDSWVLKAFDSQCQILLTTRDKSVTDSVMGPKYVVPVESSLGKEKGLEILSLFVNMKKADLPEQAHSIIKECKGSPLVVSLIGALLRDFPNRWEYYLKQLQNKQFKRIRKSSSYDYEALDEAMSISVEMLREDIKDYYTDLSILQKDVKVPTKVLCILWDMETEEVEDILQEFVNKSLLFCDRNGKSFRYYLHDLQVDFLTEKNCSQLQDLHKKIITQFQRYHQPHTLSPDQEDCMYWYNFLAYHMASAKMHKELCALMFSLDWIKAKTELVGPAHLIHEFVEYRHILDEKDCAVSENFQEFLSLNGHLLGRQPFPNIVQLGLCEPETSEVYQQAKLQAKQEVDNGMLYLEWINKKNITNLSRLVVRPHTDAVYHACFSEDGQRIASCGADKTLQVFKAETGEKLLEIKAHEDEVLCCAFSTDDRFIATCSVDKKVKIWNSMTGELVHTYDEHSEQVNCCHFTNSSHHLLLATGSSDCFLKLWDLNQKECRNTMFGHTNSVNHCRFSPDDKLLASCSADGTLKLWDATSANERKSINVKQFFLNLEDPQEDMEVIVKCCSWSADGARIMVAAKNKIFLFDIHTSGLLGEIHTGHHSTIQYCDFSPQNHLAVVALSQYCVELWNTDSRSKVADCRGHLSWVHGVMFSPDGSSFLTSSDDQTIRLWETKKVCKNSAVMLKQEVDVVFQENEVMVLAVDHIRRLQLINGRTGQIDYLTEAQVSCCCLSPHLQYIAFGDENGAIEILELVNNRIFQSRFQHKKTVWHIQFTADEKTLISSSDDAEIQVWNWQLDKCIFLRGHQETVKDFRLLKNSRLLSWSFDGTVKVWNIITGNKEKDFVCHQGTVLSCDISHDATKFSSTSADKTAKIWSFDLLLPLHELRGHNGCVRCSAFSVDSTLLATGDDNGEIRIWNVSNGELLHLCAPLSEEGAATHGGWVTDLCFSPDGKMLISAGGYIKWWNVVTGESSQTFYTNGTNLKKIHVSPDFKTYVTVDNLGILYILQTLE
The class given is functional.

Test [6] in a line: cytotoxicity in KRAS-transformed pancreatic duct cells, primary screen, cell-based, fluorescence, HTS (AID 431).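 Also: cell line used: HPDE-C7K.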 It counts as functional. The conditions noted are these: Homo sapiens.
A short description of test [7]: cytotoxicity in HPDE-C7 cells, cell-based, fluorescence, HTS (AID 430). The class given is functional. The following applies: Homo sapiens.

Molecules are shown by their SMILES. Active and inactive are the calls of the source.

Protein-tyrosine kinase 2-beta, sequence (Q14289 whole entry): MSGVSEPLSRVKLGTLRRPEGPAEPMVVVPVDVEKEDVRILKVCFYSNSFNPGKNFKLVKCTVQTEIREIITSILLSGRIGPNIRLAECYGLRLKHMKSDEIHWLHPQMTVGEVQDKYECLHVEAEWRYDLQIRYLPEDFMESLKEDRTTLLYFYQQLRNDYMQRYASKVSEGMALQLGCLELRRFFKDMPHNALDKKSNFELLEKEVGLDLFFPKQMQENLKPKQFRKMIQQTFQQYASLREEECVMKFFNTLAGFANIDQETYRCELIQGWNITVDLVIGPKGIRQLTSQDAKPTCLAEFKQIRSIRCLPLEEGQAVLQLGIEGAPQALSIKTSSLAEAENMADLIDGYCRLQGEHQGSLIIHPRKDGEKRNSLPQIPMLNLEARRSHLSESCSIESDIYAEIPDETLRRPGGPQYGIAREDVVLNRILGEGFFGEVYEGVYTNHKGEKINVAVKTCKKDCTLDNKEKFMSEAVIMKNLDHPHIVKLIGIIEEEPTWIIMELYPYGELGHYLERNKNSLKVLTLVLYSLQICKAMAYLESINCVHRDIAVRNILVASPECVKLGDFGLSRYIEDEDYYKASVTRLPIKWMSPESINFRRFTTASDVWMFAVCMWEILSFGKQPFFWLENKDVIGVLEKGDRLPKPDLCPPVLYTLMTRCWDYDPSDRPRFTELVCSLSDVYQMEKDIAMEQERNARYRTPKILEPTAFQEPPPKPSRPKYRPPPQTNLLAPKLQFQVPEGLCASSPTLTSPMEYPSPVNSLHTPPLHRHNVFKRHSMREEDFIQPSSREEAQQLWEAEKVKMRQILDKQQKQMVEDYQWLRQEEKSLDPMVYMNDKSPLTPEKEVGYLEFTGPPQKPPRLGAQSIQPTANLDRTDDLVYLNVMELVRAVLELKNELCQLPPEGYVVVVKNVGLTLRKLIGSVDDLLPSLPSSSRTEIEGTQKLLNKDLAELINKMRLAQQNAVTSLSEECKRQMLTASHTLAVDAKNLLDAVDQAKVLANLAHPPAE

Consider `O=C1Cc2ccccc2C(=O)N1CCc1ccccc1`, for which the IC50 in test [1] was 0.148 µM (active); in test [3], > 69.5 µM (not active); in test [4] it was 2.89 µM (active); in test [5], 4.03 µM (active). On Protein RecA, the EC50 was 2.99 µM (active). Moreover, the AC50 in test [2] is 2.17 µM (active).
On to `COCCNC(=O)c1c(N)n(CCC2=CCCCC2)c2nc3ccccc3nc12`, for which the EC50 in test [6] and in test [7] was > 20 µM (not active) in each case.
